Values quoted from earlier work as cited in patent publication US20230219928A1, “PREPARATION METHOD FOR AROMATIC ETHER COMPOUND” (Jiangsu Yahong Meditech Co., Ltd., priority 2020, published 2023).

What was measured:
[1] = human, phase II clinical trial conducted by Jiangsu Yahong Meditech in China
[2] = background statement

Which results are given for O=[N+]([O-])c1ccc(O)c2ncccc12 [nitroxoline]?
biological half-life [1]: 1.22-1.44 hours; water solubility [2]: very low
